Holding throughout (assay): growth of human tumour cells (NCI), 48 h
The test system of experiment [1] is OVCAR-8 ovarian.
The subject of experiment [2] is SK-MEL-5 melanoma.
The subject of experiment [3] is U251 CNS.
The test system of experiment [4] is SK-MEL-2 melanoma.
Experiment [5] concerns TK-10 renal.
For experiment [6], the system named is MOLT-4 leukemia.
Experiment [7] concerns SF-295 CNS.
The subject of experiment [8] is SNB-75 CNS.
The subject of experiment [9] is SR leukemia.

Molecules are shown by their SMILES. Several values for one entry are separate records, joined by “and”; a condition that tells them apart may be missing. Equal values may be shown once.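 Each compound was tested at five concentrations against cells in 96-well plates for 48 hours. The concentration for 50% growth inhibition is given as GI50. TGI: concentration producing complete growth inhibition.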 Bounds are passed on as bounds.

Regarding `CN(C)C(=O)Oc1c(-c2ccccc2)c(=O)n2c3ccccc3n3c(=O)n(C)c(=O)c1c23`, the TGI in experiment [1], in experiment [2], in experiment [3], in experiment [4], in [5] and in experiment [6] was > 100 µM throughout. For the same molecule, the TGI in experiment [7], in [8] and in experiment [9] was > 100 µM each time.
For `COC(=O)c1nn(C(=N)c2ccc(Cl)cc2)c2c1CCC2`, the TGI in [1], in [2], in experiment [3], in experiment [4], in experiment [5] and in experiment [6] was > 100 µM in each case. The TGI in experiment [7] is > 100 µM; in [8], > 100 µM; in experiment [9], 92.3 µM.
As for `O=[N+]([O-])c1ccc(C=NC23CC4CC(CC(C4)C2)C3)cc1`, the TGI in [1], in [3], in experiment [4], in experiment [5], in [6] and in [7] was > 100 µM each time. Also, the TGI in [8] was > 100 µM.
For the molecule `Cc1ccc(C(=O)CC2=Nc3nnc(CCCCCCCc4nnc5n4C(=O)C(CC(=O)c4ccc(C)cc4)=N5)n3C2=O)cc1`, the TGI in [1], in experiment [2], in [3], in [5], in experiment [6] and in [7] was > 100 µM in each case. Further, the TGI in [8] is 86.9 µM; in experiment [9], > 100 µM.
Take `O=C(CCC(=O)C1CCC/C1=N/O)Nc1ccc(Cl)cc1` (centres undefined): the TGI in [1], in experiment [2], in experiment [3], in experiment [4], in experiment [5] and in experiment [6] was > 100 µM in each case. In addition, the TGI in experiment [7], in [8] and in [9] was > 100 µM in each case.
With `Cc1cccc2c(O)cc(=O)oc12`, the TGI in experiment [1], in experiment [3], in experiment [5], in experiment [6], in experiment [7] and in experiment [8] was > 100 µM throughout. In addition, the TGI in experiment [9] is > 100 µM.
As to `O=C1/C(=C/c2ccc(Br)cc2)CCC/C1=C\c1ccc(Br)cc1`, the TGI is 22 µM in [1]; 27.1 µM in [2]; 20.5 µM in experiment [3]; 63 µM in [4]; 83.1 µM in experiment [5]; 23.5 µM in experiment [6]. The TGI in [8] turned out to be 69.3 µM.
In the case of `O=C(NC(=O)c1ccccc1[N+](=O)[O-])Nc1ccc(Oc2ncc(Cl)cn2)c(C(F)(F)F)c1`, the TGI was 9.71 µM in [1]; 1.17 µM in experiment [2]; 10.8 µM in experiment [3]; > 100 µM in [5]; > 69.1 µM in experiment [6]; > 4.64 µM in experiment [7]. For the same molecule, the TGI in experiment [9] is > 100 µM.
Take `Cn1c(=O)c2/c(n(C)c1=O)=N\C=c1\c(=O)n(C)c(=O)n(C)\c1=N\C=2`: the TGI in [1], in [2], in [3], in [4], in [5] and in [6] was > 100 µM in each case. Moreover, the TGI in [7] and in experiment [8] was > 100 µM each time.
Turning to `N.N.O=P([O-])([O-])C1(P(=O)([O-])[O-])CCCCCN1.[Pt+2]`, the GI50 was > 100 µM in [1]; > 100 µM in experiment [2]; 43.5 µM in [3]; > 100 µM in experiment [4]; > 100 µM in experiment [5]; > 100 µM in experiment [6]. For the same molecule, the GI50 is > 100 µM in experiment [7] and 29.5 µM in [8]. Further, the TGI in [1], in [2], in [3], in [4], in experiment [5] and in experiment [6] was > 100 µM each time. Besides, the TGI in experiment [7] is > 100 µM; in experiment [8], 88.1 µM.
`CC(=O)[O-].O=C([CH-]C(=O)c1ccccc1)c1ccccc1.O=C([CH-]C(=O)c1ccccc1)c1ccccc1.[Sm+3]`: the GI50 is 2.13 µM in [1]; 1.66 µM in experiment [2]; 5.93 µM in experiment [3]; 2.03 µM in experiment [4]; 6.41 µM in experiment [5]; 2.41 µM in experiment [6]. For the same molecule, the GI50 in [7] was 2.66 µM; in [8], 2.12 µM. The TGI turned out to be 16.3 µM in experiment [1]; 10.2 µM in experiment [2]; 35.3 µM in experiment [3]; 6.93 µM in [4]; 48.7 µM in [5]; 21.2 µM in [6]. The results for the TGI in [7] and in experiment [8] were 17.2 µM and 6.76 µM, respectively.
As for `C[C@]12CCC(=O)C=C1CC[C@@H]1C2CC[C@]2(C)c3nn(-c4ccccc4)nc3CC12` (some centres undefined), the TGI in experiment [1], in [2], in [3], in [4], in [5] and in experiment [6] was > 100 µM each time. Moreover, the TGI in experiment [7] and in experiment [8] was > 100 µM in each case.
As to `CC(=O)[CH-]C(C)=O.CC(=O)[CH-]C(C)=O.CC[O-].CC[O-].[Ti+4]`, the GI50 in experiment [1], in [2], in experiment [3], in [4], in experiment [5] and in experiment [6] was > 100 µM each time. The GI50 in [7] and in experiment [8] was > 100 µM each time. The TGI in [1], in [2], in experiment [3], in experiment [4], in [5] and in experiment [6] was > 100 µM in each case. Further, the TGI in experiment [7] and in experiment [8] was > 100 µM in each case.
As to `CC(=O)N/C(=C\c1ccc(Cc2nc3c([nH]2)C(=O)c2ccccc2C3=O)cc1)c1nc2c([nH]1)C(=O)c1ccccc1C2=O`, the TGI in experiment [1], in experiment [2], in [3], in [4], in [5] and in experiment [6] was > 100 µM in each case. Further, the TGI in experiment [7] and in experiment [8] was > 100 µM throughout.
In the case of `O=C(/C=C\c1cccc2ccccc12)c1cccc2ccccc12`, the GI50 is 2.61 µM in experiment [1], 12 µM in experiment [3], 2.49 µM in [6] and 3.95 µM in [9]. The TGI was 6.01 µM in experiment [1]; 27.1 µM in experiment [2]; 24.4 µM in experiment [3]; 36.8 µM in [4]; 8.08 µM and 20.5 µM in [6]; 30.2 µM in [7]. For the same molecule, the TGI in [8] was 18.6 µM; in experiment [9], > 100 µM.
For the molecule `CCN(CC)CC(=N)N(CC)c1ccccc1`, the TGI in experiment [1], in experiment [2], in experiment [3], in [4], in [5] and in experiment [6] was > 100 µM each time. The TGI in [7] and in [8] was > 100 µM throughout.
In the case of `Cn1cccc1/C=C/c1cc(Br)c(/C=C/c2cccn2C)cc1Br`, the TGI in [2] was determined as 32 µM; in [3] it was 28.6 µM; in experiment [4] it was 37.2 µM; in experiment [5], 45.3 µM; in experiment [6] it was 43.2 µM; in [7], 52.8 µM. This molecule also registered a TGI in [8] of 16.5 µM.
`CCN(CC)CCNC(=O)c1cccc2nc3ccccc3nc12`: the TGI in [1] is > 100 µM; in [2], > 100 µM; in [3], > 79.6 µM; in [4], 28.2 µM; in [5] it was > 100 µM; in experiment [6] it was 37.3 µM. For the same molecule, the TGI in [7] was > 38.1 µM; in experiment [8], > 100 µM.
As to `Cc1c(Cl)cccc1NC(=O)c1sc2nc3c(cc2c1N)CCCCC3`, the GI50 in experiment [1] is 0.825 µM; in experiment [2] it was 0.263 µM; in experiment [3], 0.281 µM; in experiment [4] it was 0.255 µM; in experiment [5] it was 6.66 µM; in experiment [6], 0.275 µM. Also, the GI50 is 0.17 µM in experiment [7] and 0.174 µM in [9]. Besides, the TGI is > 50 µM in experiment [1]; 48.6 µM in experiment [2]; 15.8 µM in experiment [3]; 25.2 µM in experiment [4]; 45.6 µM in experiment [5]; > 50 µM in experiment [6]. Besides, the values for the TGI in experiment [7] and in [9] were 10 µM and > 50 µM, respectively.
As for `CC(=O)[CH-]C(=O)c1ccccc1.CC(=O)[CH-]C(=O)c1ccccc1.CC[O-].O=C1c2ccccc2C(=O)c2c1ccc(O)c2[O-].[Ti+4]`, the TGI in experiment [1] was > 100 µM; in experiment [2], > 100 µM; in experiment [3], > 100 µM; in [4], > 100 µM; in experiment [6] it was 61.2 µM; in experiment [7], > 100 µM. Moreover, the TGI in [8] is > 100 µM. For the same molecule, the GI50 in [2] was 30.4 µM.

Source of the values: PubChem BioAssay (NCI).
